From paper PMC4770324 (Journal of Medicinal Chemistry, 2016)

Assay: Chemical stability on storage

O=c1[nH]cnc2c(-n3cc(CCN4CCC(c5cc(F)cc(F)c5)CC4)cn3)nccc12 [Compound 54l]
chemical stability in air: chemical instability
